According to US20230158025A1 (UNIVERSITY OF UTAH RESEARCH FOUNDATION, priority 2020, published 2023):
pIC50, pKd: −log10 of the molar value. “And” between values parts separate entries of the source, which are not always exact repeats. Equal values may be shown once. Read-outs that look alike come from different tables or passages of the source.

Assays:
[1] = PAMPA permeability
[2] = molecular target: T1, hGALK1m (Homo sapiens, UniProt P51570, E253A/K252A); experiment: surface plasma resonance (SPR) binding; conditions: SPR at 4° C.
T1 construct: made in house; host or cells: E. coli HMS174
Method: Further characterization of the two lead compounds thus far, Compound 1 and Compound 3, with surface plasma resonance (SPR), confirmed that these compounds bind to hGALK1m tightly. Their KDs were 23 nM and 12 nM respectively at 4° C. (FIGS. 4A and 3B). We attempted to co-crystalize these two compounds with hGALK1m, but only succeeded with Compound 1. […] Even with a fluorine substitution at C6 position, the benzoxazole ring of Compound 1 absolutely overlapped with that of Compound A (FIG. 4D). […] The decahydroquinazoline ring was opened in Compound 1, but the hydrogen bond between ketone group and Arg 105 remained intact, and Arg 105 moved closer to the ketone group in the crystal structure with Compound 1 (FIG. 4E). In addition, the amide's nitrogen atom formed a hydrogen bond with Tyr 109 (FIG. 4E), which could clarify why substituting the closed ring with opened amide structure improves the compound's activity. The isonicotinic acid moiety extended outside of the enzyme's active center and was solvent exposed (FIG. 4C).

[3] = aqueous kinetic solubility
[4] = rat microsomal stability (RLM); conditions: for half-life: rat, rat liver microsomes
[5] = molecular target: recombinant human GALK1 (Homo sapiens, UniProt P51570); experiment: hGALK1 biochemical activity assay (Kinase-Glo Plus, ATP depletion)
How it was run: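 Turnover is measured as ATP depletion by Kinase-Glo Plus luminescence after a 1 h room-temperature reaction. Compounds span 11 concentrations, 57.4 μM–0.97 nM, in final 20 mM HEPES pH 8.0 with 5 mM MgCl2. The substrate solution held 35 μM ATP; the added solution held 5 nM human or mouse GALK1 and 100 μM galactose.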

[6] = molecular target: T1, hGALK1m; experiment: in vitro hGALK1 activity assay of the structure-based optimisation (Example 12, Tables 17-20); assay type: biochemical
[7] = molecular target: recombinant mouse GALK1 (Mus musculus, UniProt Q9R0N0); experiment: mGALK1 biochemical activity assay (Kinase-Glo Plus, ATP depletion)
How it was run: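 Recombinant GALK1 (5 nM) with 100 μM galactose; GALK1 turnover read as ATP depletion by Kinase-Glo Plus luminescence. Reaction ran 1 h at room temperature before detection reagent was added.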

[8] = PAMPA, ADME P: PAMPA permeability (class), Tables 17-19, class probably colour-coded, colour lost
[9] = PAMPA, Perm. (1 × 10^−6 cm/sec)
[10] = recombinant human GALK1, Kinase-Glo Plus ATP depletion, read-out: hGALK
[11] = Tables 18-19, read-out: Max Response (%)
[12] = Tables 18-20 and text of Example 12
[13] = Tables 2-15, 35 μM ATP, 100 μM galactose, 1 h, bracketed figure after some values is undefined and not reported, read-out: mGALK IC50
[14] = recombinant mouse GALK1, Kinase-Glo Plus ATP depletion, read-out: mGALK
[15] = Tables 2-15, 35 μM ATP, 100 μM galactose, 1 h, bracketed figure after some values (e.g. −1.2) is undefined and not reported, read-out: hGALK IC50
[16] = 1 h, Table 17, read-out: Efficacy
[17] = Table 17, amide group optimization, no unit in table
[18] = Tables 18-19 and text of Example 12
[19] = Tables 2-15, 35 μM ATP, 100 μM galactose, 1 h, bracketed figure after some values is undefined and not reported
[20] = recombinant mouse GALK1, Kinase-Glo Plus ATP depletion

recombinant human GALK1, sequence (P51570 whole entry): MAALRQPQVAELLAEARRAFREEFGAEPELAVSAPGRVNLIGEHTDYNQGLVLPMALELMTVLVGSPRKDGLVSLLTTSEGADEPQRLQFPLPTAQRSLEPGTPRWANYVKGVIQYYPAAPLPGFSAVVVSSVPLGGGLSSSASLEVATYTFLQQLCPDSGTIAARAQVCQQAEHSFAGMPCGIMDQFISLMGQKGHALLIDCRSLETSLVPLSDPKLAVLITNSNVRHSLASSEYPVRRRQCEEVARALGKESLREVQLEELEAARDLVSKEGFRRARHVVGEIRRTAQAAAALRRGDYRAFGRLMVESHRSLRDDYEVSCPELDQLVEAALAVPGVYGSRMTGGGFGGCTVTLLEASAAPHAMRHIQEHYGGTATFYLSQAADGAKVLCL
recombinant mouse GALK1, sequence (Q9R0N0 whole entry): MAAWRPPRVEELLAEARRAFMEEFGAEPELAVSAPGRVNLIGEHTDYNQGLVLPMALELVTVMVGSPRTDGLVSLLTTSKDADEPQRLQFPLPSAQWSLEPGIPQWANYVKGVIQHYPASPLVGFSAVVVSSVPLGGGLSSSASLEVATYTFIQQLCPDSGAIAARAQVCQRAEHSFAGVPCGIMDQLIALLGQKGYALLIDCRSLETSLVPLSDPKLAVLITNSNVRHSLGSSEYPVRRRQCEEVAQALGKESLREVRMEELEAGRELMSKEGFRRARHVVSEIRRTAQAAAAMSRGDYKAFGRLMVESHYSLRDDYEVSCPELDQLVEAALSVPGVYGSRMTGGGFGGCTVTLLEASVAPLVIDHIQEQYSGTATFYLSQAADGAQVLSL
T1 sequence (P51570 whole entry K252A/E253A): as the sequence (P51570 whole entry) above, with K252A, E253A counted along it

SMILES	Papp [1, 8]	Sol. [3]	Metab. Stabil. (m) ([4]; microsomal half-life)	half-life [4]	pIC50 [5, 10]	Emax [6, 11]	pIC50 [6, 12]	pIC50 [7, 13]	pIC50 [7, 14]	Perm. (1 × 10^−6 cm/sec) ([1]; PAMPA)	Sol. ([3]; aqueous kinetic solubility)	Metab. Stabil. (m) ([4]; microsomal stability half-life)	pIC50 [5, 15]	Emax [6, 16]	pIC50 [6, 17]	change of potency versus parent compound (in words) [6]	pIC50 [6, 18]	also measured
CC1=C(C(=O)Nc2cc(C(=O)O)ccn2)C(c2ccccc2Cl)N=C(Nc2nc3ccc(F)cc3o2)N1 (racemic) [Compound 1, 2-(4-(2-chlorophenyl)-2-((6-fluorobenzo[d]oxazol-2-yl)amino)-6-methyl-1,4-dihydropyrimidine-5-carboxamido)isonicotinic acid]	< 10 ×10⁻⁶ cm/s	46.1 µg/mL	>30 m	< 10 min	6.17	100%	6.59	5.36	5.36									Papp [1, 9]: < 1 ×10⁻⁶ cm/s; pKd [2]: 7.64; fold improvement of potency (IC50) versus parent compound ([6]; increase in potency relative to the unsubstituted parent): ~4 fold
CC1=C(C(=O)Nc2ccc(C(=O)O)cc2)C(c2ccccc2Cl)N=C(Nc2nc3ccccc3o2)N1 (centres unmarked) [Compound 143, 4-(2-(benzo[d]oxazol-2-ylamino)-4-(2-chlorophenyl)-6-methyl-1,4-dihydropyrimidine-5-carboxamido)benzoic acid]	< 10 ×10⁻⁶ cm/s			< 10 min				5.21	5.21	3.6 1 × 10^−6 cm/sec	<1 µg/mL	>30 m	5.82	100%	5.85			
CC1=C(C(=O)Nc2cc(C(=O)O)ccn2)C(c2ccccc2Cl)N=C(Nc2nc3ccccc3o2)N1 (racemic) [Compound 194, 2-(2-(benzo[d]oxazol-2-ylamino)-4-(2-chlorophenyl)-6-methyl-1,4-dihydropyrimidine-5-carboxamido)isonicotinic acid]	< 10 ×10⁻⁶ cm/s			< 10 min	5.97		6.01	5.16	5.16		>74 µg/mL	>30 m	5.97	88%				Papp [1, 9]: < 1 ×10⁻⁶ cm/s
COc1cccc2nc(NC3=NC(c4ccccc4Cl)C(C(=O)Nc4cc(C(=O)O)ccn4)=C(C)N3)oc12 (centres unmarked) [Compound 22, 2-(4-(2-chlorophenyl)-2-((7-methoxybenzo[d]oxazol-2-yl)amino)-6-methyl-1,4-dihydropyrimidine-5-carboxamido)isonicotinic acid]	< 10 ×10⁻⁶ cm/s	65.7 µg/mL	>30 m	< 10 min	4.66	80%										greatly compromised the potencies	< 4.82	Perm. (1 × 10^−6 cm/sec) [1]: <1 1 × 10^−6 cm/sec; fold decrease of potency versus parent compound ([6]; loss of potency relative to the unsubstituted parent): 3.6 fold; mGALK IC50 [7, 19]: inactive; mGALK (μM) [7, 20]: in- active
CC1=C(C(=O)Nc2cc(C(=O)O)ccn2)C(c2ccc(F)cc2Cl)N=C(Nc2nc3ccc(F)cc3o2)N1 (centres unmarked) [Compound 45, 2-(4-(2-chloro-4-fluorophenyl)-2-((6-fluorobenzo[d]oxazol-2-yl)amino)-6-methyl-1,4-dihydropyrimidine-5-carboxamido)isonicotinic acid]	< 10 ×10⁻⁶ cm/s	40.6 µg/mL	>30 m	< 10 min	6.07	100%	6.59	5.36	5.36							little effect on the potency		Perm. (1 × 10^−6 cm/sec) [1]: <1 1 × 10^−6 cm/sec
CC1=C(C(=O)Nc2cc(C(=O)O)ccn2)C(c2ccccc2Cl)N=C(Nc2nc3cccc(OC(F)(F)F)c3o2)N1 (centres unmarked) [Compound 21, 2-(4-(2-chlorophenyl)-6-methyl-2-((7-(trifluoromethoxy)benzo[d]oxazol-2-yl)amino)-1,4-dihydropyrimidine-5-carboxamido)isonicotinic acid]	< 10 ×10⁻⁶ cm/s	47.8 µg/mL	>30 m	< 10 min		88%										greatly compromised the potencies	< 4.82	hGALK IC50 ([5]; Tables 2-15, 35 μM ATP, 100 μM galactose, 1 h, bracketed figure after some values (e.g. −1.2) is undefined and not reported): inactive; hGALK (μM) ([5]; recombinant human GALK1, Kinase-Glo Plus ATP depletion): in- active; mGALK IC50 [7, 19]: inactive; mGALK (μM) [7, 20]: in- active
CC1=C(C(=O)Nc2cc(C(=O)O)ccn2)C(c2ccccc2Cl)N=C(Nc2nc3cccc(F)c3o2)N1 (centres unmarked) [Compound 10, 2-(4-(2-chlorophenyl)-2-((7-fluorobenzo[d]oxazol-2-yl)amino)-6-methyl-1,4-dihydropyrimidine-5-carboxamido)isonicotinic acid]	< 10 ×10⁻⁶ cm/s	>77 µg/mL	>30 m	< 10 min	5.76	100%		5.06	5.06							did not change the potency	6.00	Perm. (1 × 10^−6 cm/sec) [1]: <1 1 × 10^−6 cm/sec
CCn1cc(CNC(=O)C2=C(C)NC(Nc3nc4ccc(F)c(N)c4o3)=NC2c2ccc(C)cc2Cl)cn1 (racemic) [Compound 125, 2-((7-amino-6-fluorobenzo[d]oxazol-2-yl)amino)-4-(2-chloro-4-methylphenyl)-N-((1-ethyl-1H-pyrazol-4-yl)methyl)-6-methyl-1,4-dihydropyrimidine-5-carboxamide]					7.30		7.64 and 7.66	6.21	6.21		<1 µg/mL	14.08 m	7.30					Papp [1, 9]: 410 ×10⁻⁶ cm/s
CC1=C(C(=O)NCc2nccn2C)C(c2ccccc2Cl)N=C(Nc2nc3ccccc3o2)N1 (centres unmarked) [Compound 231]	< 10 ×10⁻⁶ cm/s			< 10 min	4.81			4.86	4.86	>1113 1 × 10^−6 cm/sec	23.0 µg/mL	6.415 m		94%	4.96			
CC1=C(C(=O)Nc2nncs2)C(c2ccccc2Cl)N=C(Nc2nc3ccccc3o2)N1 (centres unmarked) [Compound 205, 2-(benzo[d]oxazol-2-ylamino)-4-(2-chlorophenyl)-6-methyl-N-(1,3,4-thiadiazol-2-yl)-1,4-dihydropyrimidine-5-carboxamide]	< 10 ×10⁻⁶ cm/s			< 10 min	5.41			5.11	5.11	207.3 1 × 10^−6 cm/sec	<1 µg/mL	>30 m	5.41	96%	5.47			
CC1=C(C(=O)Nc2cc(C(=O)O)ccn2)C(c2cccc(Cl)c2Cl)N=C(Nc2nc3ccc(F)cc3o2)N1 (centres unmarked) [Compound 49, 2-(4-(2,3-dichlorophenyl)-2-((6-fluorobenzo[d]oxazol-2-yl)amino)-6-methyl-1,4-dihydropyrimidine-5-carboxamido)isonicotinic acid]	< 10 ×10⁻⁶ cm/s	55.5 µg/mL	>30 m	< 10 min	5.06	100%		4.66	4.66				5.06			compromised the potency	5.44	
CC1=C(C(=O)Nc2cccc(C(=O)O)c2)C(c2ccccc2Cl)N=C(Nc2nc3ccccc3o2)N1 (centres unmarked) [Compound 142, 3-(2-(benzo[d]oxazol-2-ylamino)-4-(2-chlorophenyl)-6-methyl-1,4-dihydropyrimidine-5-carboxamido)benzoic acid]	< 10 ×10⁻⁶ cm/s			< 10 min	5.61			5.21	5.21	<1 1 × 10^−6 cm/sec	59.1 µg/mL	>30 m		96%	5.51			
